What was measured:
G. vaginalis G19 = assay: anti-Gardnerella activity of film dispersions, micromethod (CSLI M45); type: cell-based, Gardnerella vaginalis; parameters: key: −: absence of bacterial growth; +: presence; settings: lactic acid used for the preparation of formulations (control)
Protocol: (§1) In an embodiment, the antibacterial activity of chitosan films was tested against two Gardnerella vaginalis clinical strains, this being the pathogen most frequently associated with vaginal bacteriosis. […] The antibacterial activity was tested according to the CSLI M45 standard. Controls were performed with VFS and the lactic acid used for the preparation of formulations, as well as growth controls of strains and sterility of the culture medium used. All tests were performed in duplicate. Plates were observed concerning the presence or absence of bacterial growth after 48 h of growth at 37° C. Table 3 represents the results obtained indicating the marked activity of the film since no bacterial growth occurs for 1:4 dilution (second sequential dilution) of the film dispersion in 3 mL of water and VFS. […] The test was performed after incubation of the wells containing the tissue with maintenance medium (commercial), at 37° C. with 5% CO2 atmosphere, in accordance with the recommendations of the supplier. After the incubation period, 17 mg of film were placed over the tissue in each well and added of […] of PBS to allow for dispersion. After the 12 h incubation period, cellular viability was assessed by the MTT test (n=2 wells) and histological analysis was performed. […] Since this formulations was developed to treat an infection, being toxic to bacteria, it wouldn't be expected to totally innocuous for the human tissue. Biocompatibility of chitosan with human tissue has been described and the lactic acid used in this formulation was selected due to the natural occurrence in the vagina. On the other hand, the fact that this formulation is intended for short term treatments, in an altered vaginal environment due to the presence of pathogens, can influence the final effect of the formulation in the tissue of the host.

G. vaginalis G71 = assay: as above; type: cell-based, Gardnerella vaginalis; parameters: key: −: absence of bacterial growth; +: presence; settings: lactic acid used for the preparation of formulations (control)
Protocol: as §1

Measured: bacterial growth

CC(O)C(=O)O (stereo not shown) [Lactic acid, lactic acid]
−: G. vaginalis G19; dilution 1:2 | G. vaginalis G19; dilution 1:4 | G. vaginalis G71; dilution 1:2 | G. vaginalis G71; dilution 1:4

From patent publication US20170224749A1, “VAGINAL COMPOSITION FOR THE TREATMENT OF UROGENITAL INFECTIONS” (HPRD - HEALTH PRODUCTS RESEARCH AND DEVELOPMENT LDA, priority 2014, published 2017)
